Experimental data taken from patent US20080254490A1, “Salivary Protease Assays for Identifying Increased Risk of Preterm Delivery Induced by Premature Rupture of Fetal Membranes” (priority 2005, published 2008).

Tests used:
[1] = system: MMP9 specific bands (gelatinolytic activity) in saliva; details: control gels treated with EDTA
Description: Zymography: 20 μl of each saliva sample was mixed with 5 μl of a sample buffer containing 250 mM Tris pH 6.8, 25% glycerol, 10% (w/v) SDS, 0.01% bromophenol blue and loaded onto 10% SDS-PAGE gels containing 0.25% porcine gelatin (Sigma). Molecular weight markers (Biowhittaker Molecular Applications, Rockland, Me., USA) and a positive control sample of conditioned medium from the human fibrosarcoma cell line HT-1080 were also included on the gel. Following electrophoresis, the gels were washed twice for 15 mins each in 2.5% Triton X-100 and then incubated overnight at 37° C. in a substrate buffer containing 50 mM Tris-HCl, pH 7.6 and 10 mM CaCl2 in the absence or presence of proteinase inhibitors EDTA (30 mM), BB-94 (20 μM), BMS-275291 (20 μM) or B428 (20 μM). Following incubation, the gels were stained with a solution of 0.5% (w/v) Coomassie Blue R250 prepared in 50% methanol: 10% acetic acid. Once stained, the gels were briefly de-stained in the same solution without the Coomassie Blue and then stored in distilled water. Areas of gelatinolytic activity appeared cleared against the blue background of the coomassie-stained undigested gelatin.

[2] = system: metalloproteinase activity in human saliva samples; test: Proteinase activity assay in saliva with DQ-gelatin (fluorometry); assay type: biochemical; details: compared with BB-94
Description: Proteinase activity assay: Total proteolytic activity in saliva samples was measured by fluorometry using the generic substrate DQ-gelatin (Molecular Probes Inc). An aliquot (usually 50 μl per 160 μl total assay volume) of each sample was mixed with substrate (10 μg/ml) in tricine buffer (50 mM Tricine, pH 7.4; 200 mM NaCl; 10 mM CaCl2; 0.05 mM ZnSO4; 0.005% Brij 35) and incubated at 37° C. An inhibitor cocktail comprising of inhibitors of serine, cysteine and aspartyl proteinases (‘Complete—EDTA free’, Roche Biochemicals, San Diego, Calif.) was included in the reactions for all the human saliva samples. Fluorometric measurements (excitation at 485 nm and emission at 538 nm) recorded every 10-20 minutes for 2 hours. These values were used to calculate an initial rate of enzyme activity (Fluorescence units/minute) which, for the murine samples, was then normalized for amylase concentration. To measure non-metalloproteinase activity, EDTA at a concentration of 30 mM was included in the assay mixture. Metalloproteinase (MP) activity was then determined as total less the EDTA-inhibited activity. Similarly, matrix metalloproteinase (MMP) activity, defined as the BB-94-inhibitible activity, was determined by subtracting the activity in the presence of BB-94 (25 μM) from total proteinase activity. […]

[3] = system: sheddases, proteinases of the ADAM family; details: cited from earlier work

In the case of `O=C(O)CN(CCN(CC(=O)O)CC(=O)O)CC(=O)O` [EDTA], the “gelatinolytic bands on zymography gels” value [1] is reported as “showed no bands”.

With `CNC(=O)[C@@H](NC(=O)[C@H](CC(C)C)NC(=O)[C@@H](S)CCN1C(=O)N(C)C(C)(C)C1=O)C(C)(C)C` [BMS-275291] the “inhibition of salivary metalloproteinase activity (DQ-gelatin cleavage)” value [2] was “results comparable to those with BB-94”.

For `CNC(=O)[C@H](Cc1ccccc1)NC(=O)[C@H](CC(C)C)[C@H](CSc1cccs1)C(=O)NO` [BB-94], the activity against sheddases [3] is given as “activity against sheddases”.
